The values below come from patent publication US6413948B1, “Pharmaceutical compositions and methods of effecting a neuronal activity in an animal using naaladase inhibitors” (Guilford Pharmaceuticals Inc., priority 1996, dated 2002).

Experiment [1] addresses T1, NAALADase (UniProt P70627).
T1 construct: Ki; other: compared with 2-(phosphonomethyl)pentanedioic acid
The experiment in a line: In vitro inhibition of NAALADase activity. It counts as biochemical. As to conditions: for Ki: [3H]Glu liberated from [3H]NAAG, synaptosomal protein, 15 minutes at 37° C.; for NAALADase inhibiting activity (comparison in words): compared with 2-(phosphonomethyl)pentanedioic acid. On the procedure: Various compounds of formula I were tested for in vitro inhibition of NAALADase activity.
Substrate and product were resolved by anion-exchange liquid chromatography. […] Quisqualate (100 μM) was included in parallel assay tubes to confirm the specificity of the measurements.

The subject of experiment [2] is cortical cell cultures. Briefly: In vitro assay of NAALADase inhibitors on ischemia (potassium cyanide and 2-deoxyglucose, LDH release). The experiment is classed as cell-based, rats. As to conditions: Rattus norvegicus, 1 h, read-out: EC50 (concentration required to cause a 50% reduction in glutamate toxicity following an ischemic insult).
Experimental: The methods for this assay are described in detail below.
Dissociated cortical cell cultures are prepared using the papain-dissociation method of Heuttner and Baughman (1986) as modified by Murphy and Baraban (1990). […] Fetuses of embryonic day 17 are removed from timed pregnancy rats (Harlan Sprague Dawley). The cortex is rapidly dissected out in Dulbecco's phosphate-buffered saline, stripped of meninges, and incubated in a papain solution for 15 minutes at 37° C. The tissue is then mechanically triturated and pelleted at 500 g (1000-2000 rpm on swinging bucket Beckman). The pellet is resuspended in a DNAase solution, triturated with a 10 ml pipette ×15-20, layered over a “10×10” solution containing albumin and trypsin inhibitor (see TABLE VII for an example of a “10×10” solution), repelleted, and resuspended in a plating medium containing 10% fetal bovine serum (HyClone A-1111-L), 5% heat-inactivated Equine serum (HyClone A-3311-L), and 84% modified Earle's basal medium (MEM) (Gibco 51200-020) with high glucose (4.5 g/L), and 1 g/L NaHCO3. Each 24-well plate is pretreated with poly-D-lysine (0.5 ml/well of 10 μg/ml) for 1 h and rinsed with water before plating. Cultures are plated at 2.5×10^6 cells/ml with each well of a 24 well plate receiving 500 μl/well. Alternatively, 35 mm dishes can be plated at 2 ml/dish, 6 well plates at 2 ml/well, or 12 well plates at 1 ml/well. After plating, 50% of the medium is changed every 3-4 days with growth serum containing 5% heat-inactivated Equine serum (HyClone A3111-L), 95% modified Earle's basal medium (MEM)(Gibco 51200-020), and 1% L-Glutamine (Gibco 25030-081). Experiments are performed after 21 days in cultures. Cultures are maintained in a 5% CO2 atmosphere at 37° C.
Twenty-one to twenty-four days following the initial cortical cell plating, the experiment is performed. The cultures are washed three times in HEPES buffered saline solution containing no phosphate. […] At the end of 24 hours, the cultures are analyzed for release of the cytosolic enzyme lactate dehydrogenase (LDH), a standard measure of cell lysis. LDH measurements are performed according to the method of Koh and Choi, J. Neuroscience Methods (1987).
Release of the cytosolic enzyme lactate dehydrogenase (LDH), a standard measure of cell lysis, is used to quantify injury (Koh and Choi, 1987). LDH-activity measurements are normalized to control for variability between culture preparations (Koh and Choi, 1987). […] This control measurement is subtracted from each experimental point. […] Only main effects of NAALADase inhibitors are considered; interactions between dose and condition are not examined statistically.
The next experiment relates to MPTP lesioned mice. Briefly: In vivo assay on Parkinson's Disease (MPTP lesioned mice, TH immunostaining). Also noted: species or system CD1 white mice. On the procedure: MPTP lesioning of dopaminergic neurons in mice was used as an animal model of Parkinson's Disease, as described by Steiner, Proc. Natl. Acad. Sci., Vol. 94, pp. 2019-2024 (March 1997). In brief, four week old male CD1 white mice were dosed IP with 30 mg/kg of MPTP for 5 days. […] At 18 days following MPTP treatment, the mice were sacrificed and their brains were removed and sectioned. Immunostaining was performed on saggital and coronal brain sections using anti-tyrosine hydroxylase (TH) antibodies to quantitate survival and recovery of dopaminergic neurons.

The test system of experiment [3] is spinal cord organotypic cultures. The experiment in a line: Spinal cord culture model of ALS (THA toxicity, ChAT activity). The experiment is classed as cell-based, rats. As to conditions: Table XII; THA without inhibitor. Here is the method: Organotypic cultures were prepared from lumbar spinal cord of 8 day old rats, as described by Rothstein et al., J. Neurochem., Vol. 65, No. 2 (1995), and Rothstein et al., Proc. Natl. Acad. Sci. USA, Vol. 90, pp. 6591-6595 (July 1993). In brief, lumbar spinal cords were removed and sliced into 300 […] sections, and five slices were placed on Millipore CM semipermeable 30-mm-diameter membrane inserts. The inserts were placed on 1 ml of culture medium in 35-mm-diameter culture wells. Culture medium consisted of 50% minimal essential medium and phosphate-free HEPES (25 mM), 25% heat-inactivated horse serum, and 25% Hanks' balanced salt solution (GIBCO) supplemented with D-glucose (25.6 mg/ml) and glutamine (2 mM), at a final pH of 7.2. Antibiotic and antifungal agents were not used. Cultures were incubated at 37° C. in 5% CO2 containing humidified environment (Forma Scientific). Culture medium, along with any added pharmacological agents, was changed twice weekly.
Drugs were incubated for an additional 13 to 20 days with the 100 μM THA. At the end of this period, cultures were collected assayed for ChAT activity as described below.
To determine choline acetyltransferase (ChAT) activity, the spinal cord tissues in each dish (five slices) were pooled and frozen (−75° C.) until assay. ChAT activity was measured radiometrically by described methods using [^3H] acetyl-CoA (Amersham; Fonnum, 1975). Protein content of tissue homogenate was determined by a Coomassi Protein Assay kit (Pierce, Rockford, Ill.).

The test system of experiment [4] is cortical cell cultures. Briefly: In vitro toxicity of NAAG. It counts as cell-based, rats. The following applies: 20 minutes. Here is the method: See TABLE VII for the Dissociated Culture Protocol as used herein. […] Experiments are performed after 21 days in cultures.
At the end of exposure, the cells are washed once with HEPES buffered saline solution and then replaced with serum free modified Earle's basal medium. The cultures are then returned to the CO2 incubator for 24 hour recovery.
This control measurement is subtracted from each experimental point.

The test system of experiment [5] is NAALADase. As to conditions: NAAG as substrate of NAALADase; cited from earlier work.
Setting [6] is: treated during ischemic insult and for one hour thereafter.

Where two headings read alike, the source gives them in different places. Residues, ends and D or L forms follow the SMILES beside them.

What is called Ki is the dissociation constant of the complex between target and ligand, obtained from inhibition or displacement. In the case of `O=C(O)C(CCc1ccccc1)CP(=O)(O)O` (centres unmarked) [drawing 33], the Ki on NAALADase [1] turned out to be 199 nM.

As for `O=C(O)CCC(CP(=O)(O)Cc1c(F)c(F)c(F)c(F)c1F)C(=O)O` (centres unmarked) [drawing 48], the EC50 in the experiment with cortical cell cultures [2] (setting [6]) turned out to be 2 nM.

As for `O=C(O)CCC(CP(=O)(O)Cc1ccc(O)cc1)C(=O)O` (centres unmarked), the Ki on NAALADase [1] is 117 nM.

As for `O=C(O)CCC(CP(=O)(O)Cc1ccc(F)cc1)C(=O)O` (centres unmarked) [drawing 28], at NAALADase [1], the Ki was found to be 70 nM.

As for `O=C(O)CCC(CP(=O)(O)c1ccccc1)C(=O)O` (centres unmarked) [drawing 19], at NAALADase [1], the inhibitory constant (Ki) came out at 35.8 nM.

With `O=C(O)CCC(CP(=O)(O)CCc1ccccc1)C(=O)O` (centres unmarked) [drawing 23], the Ki on NAALADase [1] is 148 nM.

As for `CN1CC=C(c2ccccc2)CC1` [MPTP, reference compound], the “loss of functional dopaminergic terminals as compared to non-lesioned mice” value in the experiment with MPTP lesioned mice (MPTP and vehicle) is recorded as “approximately 68%”. In the experiment with MPTP lesioned mice (MPTP/vehicle, MPTP 30 mg/kg IP for 5 days), the “Percent Strial TH Innervation Density (mean ± SEM)” value is on record as 7.82 ± 0.68%.

As for `O=C(O)CCC(CP(=O)(O)c1ccc(F)cc1)C(=O)O` (centres unmarked), on NAALADase [1], the inhibitory constant (Ki) stood at 532 nM.

Regarding `O=C(O)CCC(CP(=O)(O)CCc1ccccc1)C(=O)O` (centres unmarked) [drawing 49], the EC50 in the experiment on cortical cell cultures [2] (setting [6]) worked out at 834 nM.

As to `Cc1ccc(P(=O)(O)CC(CCC(=O)O)C(=O)O)cc1` (centres unmarked), the inhibition constant Ki on NAALADase [1] stood at 204 nM.

Take `CP(=O)(O)CC(CCC(=O)O)C(=O)O` (centres unmarked): at NAALADase [1], the Ki amounted to 1100 nM.

As to `O=C(O)CCC(CP(=O)(O)CCCc1ccccc1)C(=O)O` (centres unmarked) [drawing 50], the EC50 with cortical cell cultures [2] (setting [6]) came out at 4320 nM.

On to `O=C(O)CCC(CP(=O)(O)Cc1ccccc1F)C(=O)O` (centres unmarked), for which the Ki at NAALADase [1] came out at 145 nM.

For `COc1ccc(CP(=O)(O)CC(CCC(=O)O)C(=O)O)cc1` (centres unmarked) [drawing 51], the EC50 in the experiment with cortical cell cultures [2] (setting [6]) is 1670 nM.

For `Cc1ccc(CP(=O)(O)CC(CCC(=O)O)C(=O)O)cc1` (centres unmarked) [drawing 27], the inhibition constant Ki at NAALADase [1] is 68 nM.

With `O=C(O)CCC(CP(=O)(O)CCCc1ccccc1)C(=O)O` (centres unmarked) [drawing 24], the Ki at NAALADase [1] was determined as 232 nM.

As for `O=C(O)CCC(CP(=O)(O)Cc1cccc(C(F)(F)F)c1)C(=O)O` (centres unmarked) [drawing 36], the inhibition constant (Ki) at NAALADase [1] was found to be 22.5 nM.

`O=C(O)CCC(CP(=O)(O)CCC(=O)O)C(=O)O` (centres unmarked) [2-[[(2-carboxyethyl)hydroxyphosphinyl]methyl]pentanedioic acid]: at NAALADase [1], the inhibitory constant (Ki) was determined as 1.89 ± 0.19 nM and the “NAALADase inhibiting activity (comparison in words)” value is reported as “lower NAALADase inhibiting activity”.

As to `CCCCP(=O)(O)CC(CCC(=O)O)C(=O)O` (centres unmarked) [drawing 21], the inhibition constant Ki on NAALADase [1] amounted to 113 nM.

Regarding `O=C(O)CCC(CP(=O)(O)O)C(=O)O` (centres unmarked) [drawing 39], the EC50 in the experiment with cortical cell cultures [2] turned out to be 0.67 nM.

On to `O=C(O)CCC(CP(=O)(O)Cc1ccccc1)C(=O)O` (centres unmarked) [drawing 42], for which the EC50 in the experiment on cortical cell cultures [2] (setting [6]) worked out at 132 nM.

Consider `O=C(O)CCC(CP(=O)(O)Cc1ccccc1C(F)(F)F)C(=O)O` (centres unmarked), for which the inhibition constant Ki at NAALADase [1] was found to be 92 nM.

In the case of `O=C(O)CCC(CP(=O)(O)C(O)c1ccccc1)C(=O)O` (centres unmarked) [drawing 44], the EC50 in the experiment with cortical cell cultures [2] (setting [6]) is 767 nM.

Consider `O=C(O)CCC(CP(=O)(O)Cc1ccccc1)C(=O)O` (centres unmarked) [drawing 18], for which the Ki at NAALADase [1] worked out at 34.1 nM.

For `Cc1cccc(P(=O)(O)CC(CCC(=O)O)C(=O)O)c1` (centres unmarked), on NAALADase [1], the inhibition constant Ki is 180 nM.

With `CCCCP(=O)(O)CC(CCC(=O)O)C(=O)O` (centres unmarked) [drawing 45], the EC50 in the experiment on cortical cell cultures [2] (setting [6]) worked out at 794 nM.

Consider `Cc1ccc(CP(=O)(O)CC(CCC(=O)O)C(=O)O)cc1` (centres unmarked) [drawing 46], for which, in the experiment on cortical cell cultures [2] (setting [6]), the EC50 worked out at 37 nM.

On to `O=C(O)C(CCc1ccccc1)CP(=O)(O)O` (centres unmarked) [drawing 40], for which the EC50 with cortical cell cultures [2] (setting [6]) was 373 nM.

For the compound `N[C@H](C(=O)O)[C@H](O)C(=O)O` [THA, threohydroxyaspartate, reference compound], the “ChAT Activity (% of Control)” value in experiment [3] was 0 % of Control.

A word on the Km: it is the concentration of substrate that gives half-maximal velocity. For the compound `CC(=O)N[C@@H](CC(=O)O)C(=O)N[C@@H](CCC(=O)O)C(=O)O` [NAAG, N-acetyl-aspartyl-glutamate] (Ac-Asp-Glu-OH), the “% Toxicity” value in the experiment on cortical cell cultures [4] (NAAG 3 μM) is 3.51 (n = 1) %; with cortical cell cultures [4] (NAAG 10 μM) it was 4.30 ± 3.12 (n = 3) %; in the experiment with cortical cell cultures [4] (NAAG 30 μM), 11.40 ± 6.17 (n = 3) %; in the experiment on cortical cell cultures [4] (NAAG 100 μM), 12.66 ± 5.50 (n = 3) %; in the experiment on cortical cell cultures [4] (NAAG 300 μM) it was 13.50 ± 4.0 (n = 3) %; in the experiment with cortical cell cultures [4] (NAAG 1 mM), 21.46 ± 4.20 (n = 3) %. In addition, the “% Toxicity” value with cortical cell cultures [4] (NAAG 3 mM) is 45.11 ± 4.96 (n = 3) %. Also, the Km with NAALADase [5] was 0.54 µM.

Take `O=C(O)CCCC(CP(=O)(O)O)C(=O)O` (centres unmarked): the inhibition constant (Ki) on NAALADase [1] worked out at 185 nM.

As for `O=C(O)CCC(CP(=O)(O)Cc1c(F)c(F)c(F)c(F)c1F)C(=O)O` (centres unmarked) [drawing 31], on NAALADase [1], the inhibition constant Ki is 22.7 nM.

`O=C(O)CC(CP(=O)(O)O)C(=O)O` (centres unmarked) [2-(phosphonomethyl)succinic acid]: at NAALADase [1], the inhibition constant Ki came to 700 ± 67.3 nM and the “NAALADase inhibiting activity (comparison in words)” value is on record as “much lower NAALADase inhibiting activity”.

In the case of `O=C(O)CCC(CP(=O)(O)c1ccccc1)C(=O)O` (centres unmarked) [drawing 43], the EC50 with cortical cell cultures [2] (setting [6]) came to 100 nM.

Consider `O=C(O)CCC(CP(=O)(O)Cc1ccc(F)cc1)C(=O)O` (centres unmarked) [drawing 47], for which the EC50 with cortical cell cultures [2] (setting [6]) came out at 79 nM.

In the case of `O=C(O)CCC(CP(=O)(O)Cc1cccc(C(F)(F)F)c1)C(=O)O` (centres unmarked) [drawing 41], the EC50 in the experiment on cortical cell cultures [2] (setting [6]) was found to be 112 nM.

With `O=C(O)CCC(CP(=O)(O)Cc1ccc(OCc2ccccc2)cc1)C(=O)O` (centres unmarked), the Ki on NAALADase [1] turned out to be 177 nM.
